Laboratory results published in patent US20110318281A1, “Lactobacillus Salivarius SG-M6 for Improving Oral Bacterial Groups and Health Care Compositions Thereof” (SYNGEN BIOTECH CO., LTD., priority 2010, published 2011).

Key:
[1] = system: Porphyromonas gingivalis (ATCC 33277); assay: Disc agar diffusion test; type: cell-based; conditions: 6 mm paper disc, 37, 24 hours, mean±S.D. (n=3)
Method: (§1) Lactobacillus salivarius SG-M6 were cultured in liquid medium. MRS medium was used in this embodiment. The bacteria were cultured at 30-37 for 15-24 hours. The fermentation broth was concentrated into 30-fold of original concentration, dialyzed by Spectra/Por®Dialysis Membrane (MWCO:3500, Spectrum Laboratories Inc, CA) for 48 hours, and diluted into various concentrations according to experimental requirements. […] Above four pathogens strains were purchased from Bioresource Collection and Research Center of Food Industry Research and Development Institute in Taiwan or ATCC. […] The diameter of sterile paper disc was 6 mm. The positive bacterial inhibition effect was determined by bacterial inhibition zone over 6 mm in diameter. Otherwise, it was defined as negative bacterial inhibition effect. Cultural condition was under the temperature of 37 for 24 hours. […] The inhibition zone values were shown as mean±S.D. (n=3).

[2] = system: Actinomyces viscosus (ATCC 15987); assay: Disc agar diffusion test; type: cell-based; conditions: 6 mm paper disc, 37, 24 hours, mean±S.D. (n=3)
Method: as §1

[3] = system: Streptococcus mutans (ATCC 25175); assay: Disc agar diffusion test; type: cell-based; conditions: 6 mm paper disc, 37, 24 hours, mean±S.D. (n=3)
Method: as §1

[4] = system: Streptococcus sanguis (ATCC 49295); assay: Disc agar diffusion test; type: cell-based; conditions: 6 mm paper disc, 37, 24 hours, mean±S.D. (n=3)
Method: as §1

[5] = system: artificially induced periodontal disease (ligature wire, Streptococcus mutans); assay: Evaluation of therapeutic effect for animal periodontal disease; type: in vivo, Balb/c mice; conditions: treatment groups; for periodontal pocket improvement percentage (percentage of improving individual): Mann-Whitney test vs tMT
Method: (§2) This trial included treatment groups and control groups. The treatment groups of Lactobacillus salivarius SG-M6 were divided into 6 groups as follows: 6 groups of dialyzed fermentation product concentrate of Lactobacillus salivarius SG-M6 included 15-fold, 10-fold, 5-fold, 4-fold, 2-fold, and 1-fold (unconcentrated fermentation broth). Two control groups included the treatment of 0.267 mg/mL of tetracycline and distilled water.
Twelve of 8-week-old female Balb/c mice were selected for each group (Table 3). […] After diagnosis of diseased tissue by chief dentists, they were administered with different concentrations of Lactobacillus salivarius SG-M6 fermentation product, live Lactobacillus salivarius SG-M6, 1 mL of 0.267 mg/mL tetracycline or distilled water every day. The pathological symptoms were recorded. Wire was removed at the beginning of the treatment and periodontal pathogen inoculation was terminated. At day 4, 8, 12, and 16 after wire removal, mice periodontal pocket depth was examined. 3 mice from each group were killed for blood sampling and samples were collected for histological analysis.
(§3) Control group was used as a standard to examine individuals in each group by Mann-Whitney test. Subjects with significant difference were defined as improving individuals. (number of improving Subject/number of total subject in group)×100%=improvement percentage of periodontal pocket depth.
(§4) Experimental data were shown as mean±S.D. The statistical variation of treatment group and control group of mice periodontal pocket were performed by One-Way ANOVA and Dunnett multiple post hoc comparison in longitudinal study, and by One-Way ANOVA and LSD multiple post hoc comparison in cross-sectional study. Besides, Mann-Whitney test was used for examining the number of periodontal pocket improving individuals. The p value of statistical significance level was 0.05.

[6] = system: artificially induced periodontal disease (ligature wire, Streptococcus mutans); assay: Evaluation of preventive effect for animal periodontal disease; type: in vivo, Balb/c mice; conditions: prevention groups; for periodontal pocket improvement percentage (percentage of improving individual): Mann-Whitney test vs pMT
Method: as §2
Twelve of 8-week-old female Balb/c mice were selected for each group (Table 2). The mice were administered with various concentrations of Lactobacillus salivarius SG-M6 fermentation product, 1 mL of 0.267 mg/mL tetracyccline or distilled water. […] Their pathological symptoms observed and recorded until sacrificing all animals. Until the control group (feeding with distilled water, mock-treated group) showing gum swelling and dental plaque appearance diagnosed by chief dentists, the ligature wire was removed and inoculation of dental pathogen was stopped. At day 4, 8, 12, and 16 after wire removal, mice periodontal pocket depth was examined, 3 mice from each group were killed for blood sampling, and samples were collected for histological analysis.
as §3, §4

In the case of `CN(C)[C@@H]1C(O)=C(C(N)=O)C(=O)[C@@]2(O)C(O)=C3C(=O)c4c(O)cccc4[C@@](C)(O)[C@H]3C[C@@H]12` [Tetracycline, tetracycline], the inhibition zone [1] is reported as 33.4 ± 2.2^ mm, the inhibition zone [2] is reported as 48.2 ± 2.4^ mm and the inhibition zone [3] is reported as 29.7 ± 2.0^ mm. The inhibition zone [4] was 25.9 ± 1.2^ mm, the “periodontal pocket improvement percentage (percentage of improving individual)” value ([5]; Day 4) was 30% and the periodontal pocket depth ([5]; Day 4, Table 13, comparison with day 4) was 1.05 ± 0.64 mm. The periodontal pocket depth ([5]; Day 4, compared with tMT) was 1.05 ± 0.64 mm, the “periodontal pocket improvement percentage (percentage of improving individual)” value ([5]; Day 8) was 20% and the periodontal pocket depth ([5]; Day 8, Table 13, comparison with day 4) was 0.89 ± 0.44 mm. For the same compound, the periodontal pocket depth ([5]; Day 8, compared with tMT) was 0.89 ± 0.44 mm, the “periodontal pocket improvement percentage (percentage of improving individual)” value ([5]; Day 12) was 47% and the periodontal pocket depth ([5]; Day 12, Table 13, comparison with day 4) was 0.63 ± 0.37 mm. For the same compound, the periodontal pocket depth ([5]; Day 12, compared with tMT) was 0.63 ± 0.37 mm, the “periodontal pocket improvement percentage (percentage of improving individual)” value ([5]; Day 16) was 33% and the periodontal pocket depth ([5]; Day 16, Table 13, comparison with day 4) was 0.61 ± 0.34 mm. The periodontal pocket depth ([5]; Day 16, compared with tMT) was 0.48 ± 0.33 mm, the “periodontal pocket improvement percentage (percentage of improving individual)” value ([6]; Day 4) was 62% and the periodontal pocket depth ([6]; Day 4, Table 11, comparison with day 4) was 0.84 ± 0.50 mm. The periodontal pocket depth ([6]; Day 4 after wire removal, compared with pMT) was 0.84 ± 0.50 mm, the “periodontal pocket improvement percentage (percentage of improving individual)” value ([6]; Day 8) was 50% and the periodontal pocket depth ([6]; Day 8, Table 11, comparison with day 4) was 0.70 ± 0.34 mm. For the same compound, the periodontal pocket depth ([6]; Day 8, compared with pMT) was 0.70 ± 0.34 mm, the “periodontal pocket improvement percentage (percentage of improving individual)” value ([6]; Day 12) was 71% and the periodontal pocket depth ([6]; Day 12, Table 11, comparison with day 4) was 0.65 ± 0.26 mm. The periodontal pocket depth ([6]; Day 12, compared with pMT) was 0.56 ± 0.26 mm, the “periodontal pocket improvement percentage (percentage of improving individual)” value ([6]; Day 16) was 100% and the periodontal pocket depth ([6]; Day 16, Table 11, comparison with day 4) was 0.49 ± 0.25 mm. For the same compound, the periodontal pocket depth ([6]; Day 16, compared with pMT) was 0.49 ± 0.25 mm.
